In the NIST ThermoML archive (doi:10.1016/j.jct.2012.06.023):

Assay: xn = mol fraction of the nth substance listed
Settings: for surface tension liquid-gas: Wilhelmy plate; for viscosity: 101 kPa, Liquid, Concentric cylinders viscometry

CCCCCCCO [heptan-1-ol] + CN(C)C=O
Settings | surface tension liquid-gas, 298.15 K [mN/m] | surface tension liquid-gas, 303.15 K [mN/m] | surface tension liquid-gas, 308.15 K [mN/m] | surface tension liquid-gas, 313.15 K [mN/m] | viscosity, 298.15 K [mPa·s] | viscosity, 303.15 K [mPa·s] | viscosity, 308.15 K [mPa·s] | viscosity, 313.15 K [mPa·s]
x2 = 0 | 26.47 | 25.38 | 24.33 | 23.5 | 5.944 | 5.069 | 4.333 | 3.726
x2 = 0.1852 | 27.06 | 25.94 | 24.87 | 24.01 | 3.662 | 3.061 | 2.599 | 2.21
x2 = 0.3466 | 27.51 | 26.35 | 25.25 | 24.34 | 2.48 | 2.044 | 1.734 | 1.465
x2 = 0.4928 | 27.98 | 26.77 | 25.64 | 24.69 | 1.77 | 1.452 | 1.238 | 1.048
x2 = 0.6004 | 28.74 | 27.52 | 26.38 | 25.41 | 1.432 | 1.183 | 1.021 | 0.8722
x2 = 0.6878 | 29.48 | 28.25 | 27.1 | 26.11 | 1.224 | 1.026 | 0.898 | 0.7775
x2 = 0.7679 | 30.53 | 29.32 | 28.17 | 27.17 | 1.079 | 0.9233 | 0.8218 | 0.7462
x2 = 0.8369 | 31.64 | 30.44 | 29.3 | 28.3 | 0.9874 | 0.8807 | 0.7949 | 0.7165
x2 = 0.8984 | 32.86 | 31.7 | 30.57 | 29.57 | 0.918 | 0.8403 | 0.7775 | 0.7082
x2 = 0.951 | 34.06 | 32.93 | 31.82 | 30.82 | 0.8665 | 0.8038 | 0.7541 | 0.6934

CCCCCO [pentan-1-ol] + CN(C)C=O
Settings | surface tension liquid-gas, 298.15 K [mN/m] | surface tension liquid-gas, 303.15 K [mN/m] | surface tension liquid-gas, 308.15 K [mN/m] | surface tension liquid-gas, 313.15 K [mN/m] | viscosity, 298.15 K [mPa·s] | viscosity, 303.15 K [mPa·s] | viscosity, 308.15 K [mPa·s] | viscosity, 313.15 K [mPa·s]
x2 = 0 | 24.55 | 23.6 | 22.54 | 21.94 | 3.5 | 3.051 | 2.664 | 2.335
x2 = 0.0793 | 24.71 | 23.72 | 22.64 | 22 | 2.973 | 2.585 | 2.259 | 1.98
x2 = 0.2866 | 25.53 | 24.43 | 23.31 | 22.57 | 1.863 | 1.608 | 1.414 | 1.24
x2 = 0.4261 | 26.4 | 25.25 | 24.11 | 23.3 | 1.395 | 1.205 | 1.069 | 0.9427
x2 = 0.5048 | 27.02 | 25.85 | 24.69 | 23.84 | 1.241 | 1.076 | 0.962 | 0.8525
x2 = 0.6254 | 28.21 | 27.01 | 25.84 | 24.94 | 1.069 | 0.939 | 0.8498 | 0.7611
x2 = 0.6638 | 28.68 | 27.48 | 26.31 | 25.4 | 1.021 | 0.9012 | 0.8193 | 0.7366
x2 = 0.7952 | 30.84 | 29.66 | 28.51 | 27.56 | 0.9068 | 0.8182 | 0.7558 | 0.6895
x2 = 0.8706 | 32.34 | 31.19 | 30.05 | 29.08 | 0.8572 | 0.797 | 0.7501 | 0.6882
x2 = 0.9363 | 33.8 | 32.67 | 31.56 | 30.58 | 0.8373 | 0.783 | 0.7386 | 0.6836
